# Patent publication US10342839B2, “Essential oil compositions and applications utilizing essential oils” (Ralco Nutrition, Inc., priority 2015, dated 2019)
# Assays:
# [1] = ORAC against peroxynitrite; conditions: trolox equivalents
# Text: (§1) Table 4 illustrates the ORAC scores for oregano essential oil (Origanum vulgare), thyme essential oil (Thymus vulgaris), cinnamaldehyde, and ActiFibe (50 wt. % larch arabinogalactan, 50 wt. % water) against 5 of the most common detrimental ROS: peroxyl radicals (RO2), hydroxyl radicals (OH^−1), peroxynitrate (ONO2^−1; H2O2+NO2^−1), superoxide anion (O2^−1), and singlet oxygen (O2). Results are expressed as trolox equivalents (TE/100 g) for each composition: […]
# [2] = ORAC against peroxyl radicals; conditions: trolox equivalents
# Text: as §1
# [3] = ORAC against superoxide anion; conditions: trolox equivalents
# Text: as §1
# [4] = ORAC against singlet oxygen; conditions: trolox equivalents
# Text: as §1
# [5] = ORAC against hydroxyl radicals; conditions: trolox equivalents
# Text: as §1
# [6] = 3-oil screening trial, 35 days, broilers with cocci stress; format: in vivo, Cobb 500 cockerels; conditions: 0.75 pounds per ton of feed
# Text: 640 1-day-old Cobb 500 cockerels were wing banded, weighed and randomly assigned to pens on the day of delivery. Each pen was 3 feet wide by 2 feet long by 2 feet tall holding 10 birds each; density was 0.6 sq. ft. per bird. The pens were contained within two battery cages in a single barn, each with battery cage having 4 levels and 8 pens per level for a total of 32 pens per battery. The experimental period was 35 days divided into three (3) feeding stages, starter, grower and finisher. Bird weight, average daily gain (ADG), average daily feed intake (ADFI), feed to gain (FG) and Coccidiosis oocyte counts were determined at each period. This study was performed with a large number of treatments in order to screen a number of possible treatments for further future investigations. […]
# [7] = Total ORAC over the five ROS; conditions: sum over the five oxygen species
# Text: as §1
smiles,measurement,setting,value
"O=CC=Cc1ccccc1 [Cinnamaldehyde, cinnamaldehyde]","Oxygen Radical Absorbance Capacity, Peroxynitrite",[1],"3,500 TE/100 g"
same,"Oxygen Radical Absorbance Capacity, Peroxyl radical",[2],"18,800 TE/100 g"
same,"Oxygen Radical Absorbance Capacity, Superoxide anion",[3],"978,900 TE/100 g"
same,"Oxygen Radical Absorbance Capacity, Singlet oxygen",[4],"90,800 TE/100 g"
same,"Oxygen Radical Absorbance Capacity, Hydroxyl radical",[5],"49,300 TE/100 g"
same,Average bird weights at 35 days,[6],2180.2 grams
same,Total ORAC,[7],"1,141,300 TE/100 g"
